Measurements reported in patent publication US20250171498A1, “ANTIBIOTIC COMPOUNDS, FORMULATIONS AND METHODS OF USE” (UNIVERSITEIT LEIDEN, priority 2022, published 2025).
Values after ≈ are worked out from the molar mass of the structure shown. Where two headings read alike, the source gives them in different places. Where a SMILES comes first, the peptide text is derived from it. Bridges are numbered along the chain shown (N, C = ends). [ ]: non-standard residue; d: D form. The star is where a group is joined. S(2-cyclohexylethyl) = C1CCC(CCS*)CC1; S(3-Cl-benzyl) = Clc1cccc(CS*)c1; S(3-Methylbutyl) = CC(C)CCS*; dDab = NCC[C@@H](N)C(=O)O; dDap = NC[C@@H](N)C(=O)O; Dab = NCC[C@H](N)C(=O)O

Tests used:
Type in all cases: cell-based
[1] = system: renal Proximal Tubular Epithelial Cells (PTECs); test: Toxicity on renal Proximal Tubular Epithelial Cells
[2] = system: K. Pneumoniae (ATCC 13883)
[3] = system: P. Aeruginosa (ATCC 27853)
[4] = system: A. Baumanni (ATCC 19606)
[5] = system: E. Coli (ATCC 25922)

Compound | PTEC Toxicity (relative to polymyxin B) [1] | MIC K. Pneumoniae (ATCC 13883) ([2]; ATCC 13883) [mg/L] | MIC P. Aeruginosa (ATCC 27853) ([3]; ATCC 27853) [mg/L] | MIC A. Baumanni (ATCC 19606) ([4]; ATCC 19606) [mg/L] | MIC E. Coli (ATCC 25922) ([5]; ATCC 25922) [mg/L] | PTEC Toxicity (relative to polymyxin B) ([1]; relative value, polymyxin B = 1) | MIC K. Pneumoniae (ATCC 13883) ([2]; strain ATCC 13883) [mg/L] | MIC P. Aeruginosa (ATCC 27853) ([3]; strain ATCC 27853) [mg/L] | MIC A. Baumanni (ATCC 19606) ([4]; strain ATCC 19606) [mg/L] | MIC E. Coli (ATCC 25922) ([5]; strain ATCC 25922) [mg/L]
CC(C)C[C@@H]1NC(=O)[C@@H](Cc2ccccc2)NC(=O)[C@H](CCN)NC(=O)[C@@H](NC(=O)CNC(=O)[C@@H](NC(=O)[C@H](N)CSSCCC2CCCCC2)[C@@H](C)O)CCNC(=O)[C@H]([C@@H](C)O)NC(=O)[C@H](CCN)NC(=O)[C@H](CCN)NC1=O (H-[dC](S(2-cyclohexylethyl))TG[Dab][Dab][dF]L[Dab][Dab]T; lactam 4-C) | 7.4 | 1 (≈ 0.858 µM) | 2 (≈ 1.72 µM) | 0.5 (≈ 0.429 µM) | 2 (≈ 1.72 µM) |  |  |  |  | 
CC(C)CCSSC[C@@H](N)C(=O)N[C@H](C(=O)N[C@H](CO)C(=O)N[C@H]1CCNC(=O)[C@H]([C@@H](C)O)NC(=O)[C@H](CCN)NC(=O)[C@H](CCN)NC(=O)[C@H](CC(C)C)NC(=O)[C@@H](Cc2ccccc2)NC(=O)[C@H](CCN)NC1=O)[C@@H](C)O (H-[dC](S(3-Methylbutyl))T[dS][Dab][Dab][dF]L[Dab][Dab]T; lactam 4-C) | 21.2 | 0.5 (≈ 0.433 µM) | 4 (≈ 3.46 µM) | 0.25 (≈ 0.216 µM) | 2 (≈ 1.73 µM) |  |  |  |  | 
CC(C)CCSSC[C@@H](N)C(=O)N[C@H](C(=O)N[C@H](CN)C(=O)N[C@H]1CCNC(=O)[C@H]([C@@H](C)O)NC(=O)[C@H](CCN)NC(=O)[C@H](CCN)NC(=O)[C@H](CC(C)C)NC(=O)[C@@H](Cc2ccccc2)NC(=O)[C@H](CCN)NC1=O)[C@@H](C)O (H-[dC](S(3-Methylbutyl))T[dDap][Dab][Dab][dF]L[Dab][Dab]T; lactam 4-C) | 9.7 | 0.5 (≈ 0.433 µM) | 1 (≈ 0.866 µM) | 0.25 (≈ 0.217 µM) | 2 (≈ 1.73 µM) |  |  |  |  | 
CC(C)C[C@@H]1NC(=O)[C@@H](Cc2ccccc2)NC(=O)[C@H](CCN)NC(=O)[C@@H](NC(=O)[C@@H](CN)NC(=O)[C@@H](NC(=O)[C@H](N)CSSCc2cccc(Cl)c2)[C@@H](C)O)CCNC(=O)[C@H]([C@@H](C)O)NC(=O)[C@H](CCN)NC(=O)[C@H](CCN)NC1=O (H-[dC](S(3-Cl-benzyl))T[dDap][Dab][Dab][dF]L[Dab][Dab]T; lactam 4-C) | 5.7 | 0.5 (≈ 0.414 µM) | 1 (≈ 0.827 µM) | 0.5 (≈ 0.414 µM) | 2 (≈ 1.65 µM) |  |  |  |  | 
CC(C)C[C@@H]1NC(=O)[C@@H](Cc2ccccc2)NC(=O)[C@H](CCN)NC(=O)[C@@H](NC(=O)[C@@H](CN)NC(=O)[C@@H](NC(=O)[C@H](N)CSSCCC2CCCCC2)[C@@H](C)O)CCNC(=O)[C@H]([C@@H](C)O)NC(=O)[C@H](CCN)NC(=O)[C@H](CCN)NC1=O (H-[dC](S(2-cyclohexylethyl))T[dDap][Dab][Dab][dF]L[Dab][Dab]T; lactam 4-C) | 5.4 | 1 (≈ 0.837 µM) | 2 (≈ 1.67 µM) | 0.5 (≈ 0.419 µM) | 2 (≈ 1.67 µM) |  |  |  |  | 
CC(C)CCSSC[C@@H](N)C(=O)N[C@H](C(=O)N[C@@H](CCN)C(=O)N[C@H]1CCNC(=O)[C@H]([C@@H](C)O)NC(=O)[C@H](CCN)NC(=O)[C@H](CCN)NC(=O)[C@H](CC(C)C)NC(=O)[C@@H](Cc2ccccc2)NC(=O)[C@H](CCN)NC1=O)[C@@H](C)O [drawing 95] (H-[dC](S(3-Methylbutyl))T[Dab][Dab][Dab][dF]L[Dab][Dab]T; lactam 4-C) | 4.7 | 0.5 (≈ 0.428 µM) | 1 (≈ 0.856 µM) | 1 (≈ 0.856 µM) | 1 (≈ 0.856 µM) |  |  |  |  | 
CC(C)C[C@@H]1NC(=O)[C@@H](Cc2ccccc2)NC(=O)[C@H](CCN)NC(=O)[C@@H](NC(=O)[C@@H](CCN)NC(=O)[C@@H](NC(=O)[C@H](N)CSSCc2cccc(Cl)c2)[C@@H](C)O)CCNC(=O)[C@H]([C@@H](C)O)NC(=O)[C@H](CCN)NC(=O)[C@H](CCN)NC1=O (H-[dC](S(3-Cl-benzyl))T[dDab][Dab][Dab][dF]L[Dab][Dab]T; lactam 4-C) | 7.0 | 1 (≈ 0.818 µM) | 2 (≈ 1.64 µM) | 0.5 (≈ 0.409 µM) | 2 (≈ 1.64 µM) |  |  |  |  | 
CC(C)CCSSC[C@@H](N)C(=O)N[C@H](C(=O)N[C@@H](CCN)C(=O)N[C@H]1CCNC(=O)[C@H]([C@@H](C)O)NC(=O)[C@H](CCN)NC(=O)[C@H](CCN)NC(=O)[C@H](CC(C)C)NC(=O)[C@@H](Cc2ccccc2)NC(=O)[C@H](CCN)NC1=O)[C@@H](C)O [drawing 140] (H-[dC](S(3-Methylbutyl))T[Dab][Dab][Dab][dF]L[Dab][Dab]T; lactam 4-C) | 9.8 | 0.5 (≈ 0.428 µM) | 1 (≈ 0.856 µM) | 0.5 (≈ 0.428 µM) | 1 (≈ 0.856 µM) |  |  |  |  | 
Polymyxin B [reference compound] |  |  |  |  |  | 1 | 0.25 | 1 | 0.25 | 1
CC(C)C[C@@H]1NC(=O)[C@@H](Cc2ccccc2)NC(=O)[C@H](CCN)NC(=O)[C@@H](NC(=O)[C@@H](CO)NC(=O)[C@@H](NC(=O)[C@H](N)CSSCc2cccc(Cl)c2)[C@@H](C)O)CCNC(=O)[C@H]([C@@H](C)O)NC(=O)[C@H](CCN)NC(=O)[C@H](CCN)NC1=O (H-[dC](S(3-Cl-benzyl))T[dS][Dab][Dab][dF]L[Dab][Dab]T; lactam 4-C) | 6.7 | 1 (≈ 0.827 µM) | 4 (≈ 3.31 µM) | 0.5 (≈ 0.413 µM) | 2 (≈ 1.65 µM) |  |  |  |  | 
